Laboratory results reported in ChEMBL document CHEMBL3727366, “Heterocyclic compounds for the treatment of stress-related conditions” (2013).
Active and inactive are the calls of the source. No rule for the calls is given here.

Legend:
Rattus norvegicus [1] = assay: Inhibition of restraint stress-induced defecation in Wistar rat at 5 mL/kg, po dosed 1 or 2 hrs before restraint stress; format: functional, organism-based
Rattus norvegicus [2] = assay: Inhibition of tail-pinch stress-induced feeding behavior in Wistar rat at 5 mL/kg, po dosed 1 or 2 hrs before tail-pinch stimulus; format: functional, organism-based
[3] = target: T1, Prolactin-releasing peptide receptor (Homo sapiens, UniProt P49683); assay: Displacement of [3H]-PrRP from human GPR10 receptor expressed in HEK293 cell membranes incubated for 90 mins by liquid scintillation counting method
T1 sequence (P49683 whole entry): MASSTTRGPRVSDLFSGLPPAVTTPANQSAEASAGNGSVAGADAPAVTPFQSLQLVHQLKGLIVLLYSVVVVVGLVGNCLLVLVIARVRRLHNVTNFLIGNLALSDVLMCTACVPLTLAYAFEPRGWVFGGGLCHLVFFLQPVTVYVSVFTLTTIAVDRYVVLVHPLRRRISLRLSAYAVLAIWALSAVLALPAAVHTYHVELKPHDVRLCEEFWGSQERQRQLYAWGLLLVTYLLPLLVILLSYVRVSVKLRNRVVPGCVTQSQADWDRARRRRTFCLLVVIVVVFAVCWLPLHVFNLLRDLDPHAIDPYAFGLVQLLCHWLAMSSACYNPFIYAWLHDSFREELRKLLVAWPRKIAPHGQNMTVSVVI

SMILES	inhibition (Rattus norvegicus [1])	inhibition (Rattus norvegicus [2])	Ki [3] [nM]
C#CCn1c(N[C@@H](C)c2ccc(Cl)cc2)nc2c(c1=O)CN(C(=O)c1ccc(Cl)cc1)CC2	Active	Active	
CC#CCn1c(N[C@@H](C)c2ccc(C(F)(F)F)cc2)nc2c(c1=O)CN(C(=O)c1ccc3c(c1)CCC(=O)N3)CC2	Active	Active	
C#CCn1c(N[C@@H](C)c2ccc(C(F)(F)F)cc2)nc2c(c1=O)CN(C(=O)c1c(F)cccc1F)CC2	Active	Active	
COn1c(N[C@@H](C)c2ccc(C(F)(F)F)cc2)nc2c(c1=O)CN(C(=O)c1ccc(Cl)c(C)c1)CC2	Active	Active	
COn1c(N[C@@H](C)c2ccc(C(F)(F)F)cc2)nc2c(c1=O)CN(C(=O)c1cc3ccccc3s1)CC2			15
COn1c(NCc2ccc(C(F)(F)F)cc2)nc2c(c1=O)CN(C(=O)c1ccc(Cl)cc1)CC2	Active	Active	
CC#CCn1c(N[C@@H](C)c2ccc(C(F)(F)F)cc2)nc2c(c1=O)CN(C(=O)c1cc3ccccn3n1)CC2	Active	Active	
C#CCCn1c(N[C@@H](C)c2ccc(C(F)(F)F)cc2)nc2c(c1=O)CN(C(=O)c1ccc(C)cc1)CC2	Active	Active	
C[C@H](Nc1nc2c(c(=O)n1N(C)C)CN(C(=O)c1c(F)cc(F)cc1F)CC2)c1ccc(C(F)(F)F)cc1	Active	Active	
C#CCCn1c(N[C@@H](C)c2ccc(C(F)(F)F)cc2)nc2c(c1=O)CN(C(=O)c1ccc(C#N)cc1)CC2	Active	Active	
COn1c(N[C@@H](C)c2ccc(C(F)(F)F)cc2)nc2c(c1=O)CN(C(=O)COc1ccc(C#N)cc1)CC2	Active	Active	6
CC#CCn1c(N[C@@H](C)c2ccc(C(F)(F)F)cc2)nc2c(c1=O)CN(C(=O)c1ccc3c(c1)OCO3)CC2	Active	Active	
CC#CCn1c(N[C@@H](C)c2ccc(C(F)(F)F)cc2)nc2c(c1=O)CN(C(=O)c1ccc(-n3ccnc3)cc1)CC2	Active	Active	
COn1c(N[C@@H](C)c2ccc(C(F)(F)F)cc2)nc2c(c1=O)CN(C(=O)c1cc(-c3cccs3)n(C)n1)CC2	Active	Active	20
C[C@H](Nc1nc2c(c(=O)n1N(C)C)CN(C(=O)c1ccc(Cl)cc1)CC2)c1ccc(C(F)(F)F)cc1	Active	Active	
C#CCCn1c(N[C@@H](C)c2ccc(C(F)(F)F)cc2)nc2c(c1=O)CN(C(=O)c1ccc(C#N)cc1F)CC2	Active	Active	
COn1c(N[C@@H](C)c2ccc(Cl)cc2)nc2c(c1=O)CN(C(=O)c1cc3cccnc3s1)CC2	Active	Active	
COn1c(NC(c2ccc(Cl)cc2)C(C)C)nc2c(c1=O)CN(C(=O)c1ccc(Cl)cc1)CC2 (stereo unspecified)	Active	Active	
COn1c(N[C@@H](C)c2ccc(C(F)(F)F)cc2)nc2c(c1=O)CN(C(=O)c1ccc(C#N)cc1)CC2	Active	Active	
COn1c(N[C@@H](C)c2ccc(C(F)(F)F)cc2)nc2c(c1=O)CN(C(=O)c1cc3cc(Cl)ccc3o1)CC2	Active	Active	
COn1c(NC(CCC(F)(F)F)c2ccc(Cl)cc2)nc2c(c1=O)CN(C(=O)c1ccc(Cl)cc1)CC2 (stereo unspecified)	Active	Active	
CCC(Nc1nc2c(c(=O)n1OC)CN(C(=O)c1ccc(Cl)cc1)CC2)c1ccc(Cl)cc1 (stereo unspecified)	Active	Active	
C=Cc1ccc(C(=O)N2CCc3nc(N[C@@H](C)c4ccc(C(F)(F)F)cc4)n(OC)c(=O)c3C2)cc1	Active	Active	
CCOc1ccc(C(=O)N2CCc3nc(N[C@@H](C)c4ccc(C(F)(F)F)cc4)n(OC)c(=O)c3C2)cc1	Active	Active	
C[C@H](Nc1nc2c(c(=O)n1N(C)C)CN(C(=O)c1ccc(Cl)cc1)CC2)c1ccc(Cl)cc1	Active	Active	
C#CCCn1c(N[C@@H](C)c2ccc(C(F)(F)F)cc2)nc2c(c1=O)CN(C(=O)c1ccc(C(=O)N(C)C)cc1)CC2	Active	Active	
C[C@H](Nc1nc2c(c(=O)n1N1CCOCC1)CN(C(=O)c1ccc(C#N)cc1)CC2)c1ccc(C(F)(F)F)cc1	Active	Active	
COn1c(N[C@@H](C)c2ccc(C(F)(F)F)cc2)nc2c(c1=O)CN(C(=O)c1ccc(C#N)cc1F)CC2	Active	Active	

SMILES	inhibition (Rattus norvegicus [1])	inhibition (Rattus norvegicus [2])	Ki [3] [nM]
CCOc1ccc(CNc2nc3c(c(=O)n2OC)CN(C(=O)c2ccc(C#N)cc2F)CC3)cc1	Active	Active	
CC#CCn1c(N[C@@H](C)c2ccc(C(F)(F)F)cc2)nc2c(c1=O)CN(C(=O)c1ccc(OC)cc1)CC2	Active	Active	
COn1c(N[C@@H](C)c2ccc(C(F)(F)F)cc2)nc2c(c1=O)CN(C(=O)c1ccc(OC(F)(F)F)cc1)CC2	Active	Active	
COn1c(NCc2ccc(Cl)cc2)nc2c(c1=O)CN(C(=O)c1ccc(Cl)cc1)CC2	Active	Active	
COn1c(N[C@@H](C)c2ccc(Cl)cc2)nc2c(c1=O)CN(C(=O)c1ccc(Cl)cc1)CC2	Active	Active	
C#CCCn1c(N[C@@H](C)c2ccc(C(F)(F)F)cc2)nc2c(c1=O)CN(C(=O)c1nc3ccccc3[nH]1)CC2	Active	Active	
C#CCn1c(N[C@@H](C)c2ccc(C(F)(F)F)cc2)nc2c(c1=O)CN(C(=O)c1ccc(Cl)cc1)CC2	Active	Active	
CC#CCn1c(N[C@@H](C)c2ccc(C(F)(F)F)cc2)nc2c(c1=O)CN(C(=O)c1ccc(Cl)cc1)CC2	Active	Active	
C[C@H](Nc1nc2c(c(=O)n1N(C)C)CN(C(=O)COc1ccc(Cl)cc1)CC2)c1ccc(C(F)(F)F)cc1	Active	Active	
C#CCn1c(N[C@@H](C)c2ccc(C(F)(F)F)cc2)nc2c(c1=O)CN(C(=O)c1cccc(C#N)c1)CC2	Active	Active	
COn1c(N[C@@H](C)c2ccc(C(F)(F)F)cc2)nc2c(c1=O)CN(C(=O)c1cnc3ccccc3c1)CC2	Active	Active	
CC#CCn1c(N[C@@H](C)c2ccc(C(F)(F)F)cc2)nc2c(c1=O)CN(C(=O)c1ccc(C#N)cc1)CC2	Active	Active	
COn1c(N2CCCC2c2ccc(C(F)(F)F)cc2)nc2c(c1=O)CN(C(=O)c1ccc(Cl)cc1)CC2 (stereo unspecified)	Active	Active	
CC#CCn1c(N[C@@H](C)c2ccc(C(F)(F)F)cc2)nc2c(c1=O)CN(C(=O)c1ccc(C#N)cc1F)CC2	Active	Active	
COc1cc(Cl)ccc1C(=O)N1CCc2nc(N[C@@H](C)c3ccc(C(F)(F)F)cc3)n(OC)c(=O)c2C1	Active	Active	
CC#CCn1c(N[C@@H](C)c2ccc(C(F)(F)F)cc2)nc2c(c1=O)CN(C(=O)c1ccc(-c3cnco3)cc1)CC2	Active	Active	
CC#CCn1c(N[C@@H](C)c2ccc(C(F)(F)F)cc2)nc2c(c1=O)CN(C(=O)c1ccc(C)c(C)c1)CC2	Active	Active	
C#CCCn1c(N[C@@H](C)c2ccc(C(F)(F)F)cc2)nc2c(c1=O)CN(C(=O)c1ccc(-c3cnco3)cc1)CC2	Active	Active	
CC#CCn1c(N[C@@H](C)c2ccc(C(F)(F)F)cc2)nc2c(c1=O)CN(C(=O)c1ccc3cccnc3c1)CC2	Active	Active	
C#CCCn1c(N[C@@H](C)c2ccc(C(F)(F)F)cc2)nc2c(c1=O)CN(C(=O)c1ccc(-n3ccnc3)cc1)CC2	Active	Active	
CC#CCn1c(N[C@@H](C)c2ccc(C(F)(F)F)cc2)nc2c(c1=O)CN(C(=O)c1cnc3ccccc3c1)CC2	Active	Active	
CC#CCn1c(N[C@@H](C)c2ccc(C(F)(F)F)cc2)nc2c(c1=O)CN(C(=O)c1ccc3ccccc3n1)CC2	Active	Active	
C#CCn1c(N[C@@H](C)c2ccc(C(F)(F)F)cc2)nc2c(c1=O)CN(C(=O)c1ccc(C#N)cc1F)CC2	Active	Active	
C[C@H](Nc1nc2c(c(=O)n1N(C)C)CN(C(=O)COc1ccc(Cl)cc1)CC2)c1ccc(Cl)cc1	Active	Active	
COn1c(N[C@@H](C)c2ccc(C(F)(F)F)cc2)nc2c(c1=O)CN(C(=O)c1ccc(Cl)cc1)CC2	Active	Active	
COn1c(N[C@@H](C)c2ccc(C(F)(F)F)cc2)nc2c(c1=O)CN(C(=O)c1ccc3c(c1)CCC(=O)N3C)CC2	Active	Active	
C[C@H](Nc1nc2c(c(=O)n1N(C)C)CN(C(=O)c1ccc(C#N)cc1F)CC2)c1ccc(C(F)(F)F)cc1	Active	Active	
